Assay results as given in patent US20030054535A1, “Endoglucanase mutants and mutant hydrolytic depolymerizing enzymes and uses thereof” (priority 1999, published 2003).
Where “and” joins values, the source holds several entries; their conditions need not be identical. Equal entries are not always repeated.

How the values were obtained:
Format in all cases: biochemical
[1] = molecular target: T1, Acidothermus cellulolyticus EI endoglucanase (Cel5A) catalytic domain, wild type (native), SEQ ID NO:3 of U.S. Pat. No. 5,536,655 (Acidothermus cellulolyticus, UniProt P54583); experiment: Inhibition by cellobiose of hydrolysis of 4-methylumbelliferyl-β-D-cellobioside (MUC), wild type; conditions: Ki for inhibition by cellobiose, substrate MUC 4 and 20 μM, 30 min, cellobiose 0 to 5 mM, Dixon plots
T1 construct: the mutant and wild type Cel5A catalytic domains were purified using the purification methods described above; made in house; host or cells: E. coli XL1-blue
T1 sequence (P54583 42-400): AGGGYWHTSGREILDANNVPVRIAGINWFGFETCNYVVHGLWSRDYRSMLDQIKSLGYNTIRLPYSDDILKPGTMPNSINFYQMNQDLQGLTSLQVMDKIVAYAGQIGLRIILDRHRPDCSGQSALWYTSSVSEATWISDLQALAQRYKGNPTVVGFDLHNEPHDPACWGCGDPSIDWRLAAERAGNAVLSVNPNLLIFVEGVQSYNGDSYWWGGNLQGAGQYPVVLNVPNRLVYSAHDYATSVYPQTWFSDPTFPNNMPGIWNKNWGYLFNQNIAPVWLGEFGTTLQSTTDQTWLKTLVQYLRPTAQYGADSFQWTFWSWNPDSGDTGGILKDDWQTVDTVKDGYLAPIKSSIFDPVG
Method: (§1) The enzymes (0.682 ng) were incubated for 30 min with the substrate at each of two concentrations (4 and 20 μM), in the presence of D-cellobiose (Sigma, St. Louis) )at concentrations ranging from 0 to 5 mM for the wild type catalytic domain, and from 0 to 50 mM for the Y245G mutant. At the end of the incubation period, the reaction in each 1-mL assay mixture was terminated by addition of 2 mL of 0.5 M sodium carbonate, pH 10.0. The extent of hydrolysis was then determined from the fluorescence of the ionized product, 4-methylumbelliferone, as measured in a SPEX FLUOROLOG spectrofluorometer with excitation wavelength at 380 nm and emission wavelength at 455 nm. These studies established that under these conditions, […]. Inhibition constants were then determined by means of Dixon plots of reciprocal velocity versus inhibitor concentration (Segel, 1975).
(§2) The mutant Cel5A enzyme, Y245G, was generated by PCR mutagenesis, and the mutant and wild type Cel5A catalytic domains were purified using the purification methods described above. […] For this reason, the molar extinction coefficients of the recombinant enzymes were calculated by considering the specific change in amino acid composition.

[2] = molecular target: T2, Acidothermus cellulolyticus EI endoglucanase (Cel5A) catalytic domain variant Y245G, SEQ ID NO:3 (Acidothermus cellulolyticus, UniProt P54583, Y286G); experiment: Inhibition by cellobiose of hydrolysis of 4-methylumbelliferyl-β-D-cellobioside (MUC), Y245G mutant
T2 construct: the mutant and wild type Cel5A catalytic domains were purified using the purification methods described above; made in house; host or cells: E. coli XL1-blue
T2 sequence (P54583 42-399 Y286G): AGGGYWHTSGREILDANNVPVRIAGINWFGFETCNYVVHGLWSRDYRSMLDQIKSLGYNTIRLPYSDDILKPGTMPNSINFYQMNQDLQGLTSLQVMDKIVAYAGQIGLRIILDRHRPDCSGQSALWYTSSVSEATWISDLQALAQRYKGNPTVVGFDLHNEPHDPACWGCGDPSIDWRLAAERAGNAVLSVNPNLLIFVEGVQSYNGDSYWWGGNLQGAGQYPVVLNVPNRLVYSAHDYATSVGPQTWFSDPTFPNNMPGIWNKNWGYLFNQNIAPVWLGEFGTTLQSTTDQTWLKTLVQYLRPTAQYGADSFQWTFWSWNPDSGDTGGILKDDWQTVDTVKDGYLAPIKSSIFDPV
Method: as §1, §2

[3] = molecular target: T3, Acidothermus cellulolyticus EI endoglucanase (Cel5A) catalytic domain variant W42R, SEQ ID NO:1 (Acidothermus cellulolyticus, UniProt P54583, W83R); experiment: Michaelis-Menten kinetics of cellotriose hydrolysis (cellobiose release), EIW42R; conditions: relative to native enzyme
T3 construct: the protein was genetically truncated near the beginning of the linker peptide; made in house; host or cells: E. coli XL1-blue
T3 sequence (P54583 42-399 W83R): as the sequence (P54583 42-399 Y286G) above, with W42R, G245Y counted along it
Method: (§3) Each assay mixture was pre-incubated at 50 degrees C. for 10 min. prior to the addition of 0.00272 micromolar (0. 1092 microgram/mL) enzyme, which was also made up in 5 mM acetate buffer with 10 microgram/mL BSA. The final assay volume was 0.1 mL.
(§4) At set-time intervals, an aliquot of the reaction mixture was pulled and immediately analyzed for the release of cellobiose using a Dionex DX300 chromatography system and a Dionex PAD2 pulsed amperometric detector having a gold working electrode. The response of this detector was optimized for the detection of carbohydrates using a waveform defined by the following time and potential settings: t1=420 msec.; EI=+0.05 V; t2=180 msec.; E2=+0.75 V; t3=360 msec.; and E3=−0.15 V. Separation of the reaction products, from the substrate, was achieved on a Dionex CarboPac PA-1 analytical (4×250 mm) column equipped with CarboPac PA-1 ([…], 500 mM sodium hydroxide eluent, and a flow rate of 1.5 mL/min. The amount of cellobiose present for each time-point-sample was quantified by comparing the area of the cellobiose peak against a linear calibration curve. The kinetic constants were determined with a double-reciprocal-plot, where the reciprocal of the rate of cellobiose produced was plotted as a function of the inverse of the substrate concentration.
(§5) Michaelis-Menten kinetics of the mutant EI enzymes and the native enzyme were determined.

[4] = molecular target: T4, Acidothermus cellulolyticus EI endoglucanase (Cel5A) catalytic domain variant Y82R, SEQ ID NO:2 (Acidothermus cellulolyticus, UniProt P54583, Y123R); experiment: Michaelis-Menten kinetics of cellotriose hydrolysis (cellobiose release), EIY82R; conditions: relative to native enzyme
T4 construct: the protein was genetically truncated near the beginning of the linker peptide; made in house; host or cells: E. coli XL1-blue
T4 sequence (P54583 42-399 Y123R): as the sequence (P54583 42-399 Y286G) above, with Y82R, G245Y counted along it
Method: as §3, §4, §5

Row | Compound | Ki [1] | Ki ([2]; Ki for inhibition by cellobiose, substrate MUC 4 and 20 μM, 30 min, cellobiose 0 to 50 mM, Dixon plots) | decrease in apparent binding energy of cellobiose versus native enzyme ([2]; from increase in Ki, Y245G relative to wild type) | Vmax, % higher than that of the native enzyme [3] | Vmax, % higher than that of the native enzyme [4]
1 | OC[C@H]1O[C@@H](O[C@H]2[C@H](O)[C@@H](O)C(O)O[C@@H]2CO)[C@H](O)[C@@H](O)[C@@H]1O (stereo partly drawn) [cellobiose, D-cellobiose] | 1.88 mM and 2 mM | 29.7 mM and 30 mM | 1.7 kcal/mol and ~1.5 kcal/mol | – | –
2 | OC[C@H]1O[C@@H](O[C@H]2[C@H](O)[C@@H](O)[C@H](O[C@H]3[C@H](O)[C@@H](O)C(O)O[C@@H]3CO)O[C@@H]2CO)[C@H](O)[C@@H](O)[C@@H]1O (some centres unmarked) [cellotriose] | – | – | – | about 15% | ~75%
